Three compounds from patent publication US20140228314A1, “METHOD FOR PREPARATION OF CHITOSAN OLiGOSACCHARIDES COMPOSITION AND MIXTURE OF CHITOSAN OLiGOSACCHARIDES PREPARED THEREFROM” (KUNPOONG BIO CO., LTD, priority 2013, published 2014) can be followed below.

The assay has as its system SD rats. Put plainly: Inhibition of postprandial blood glucose rise per saccharide (sucrose load). It is filed as in vivo, rat. The settings on record: 100 mg/kg oral with 2 g/kg sucrose, control 207.8. The protocol:
To SD rats, 100 mg/kg (based on body weight) of each of standard substances from monosaccharide to tetra-saccharide and 2 g/kg (based on body weight) of sucrose were orally administered by 1 ml/rat using an oral administration sonde. At 30 minutes, 60 minutes and 120 minutes after the oral administration, blood was collected from the tail vein of each SD rat and a change in blood glucose concentration in venous blood was measured using a blood glucose meter (CareSens II).

Structures are written as SMILES.

`N[C@H]1[C@H](O[C@H]2[C@H](O)[C@@H](N)C(O)O[C@@H]2CO)O[C@H](CO)[C@@H](O)[C@@H]1O` (stereo partly drawn) [disaccharide]: the “blood glucose at 30 minutes after the meal” value (“blood glucose at 30 minutes” below) worked out at 177.6 mg/dL.

As for `N[C@H]1C(O)O[C@H](CO)[C@@H](O)[C@@H]1O` (stereo partly drawn) [monosaccharide], the “blood glucose at 30 minutes” value stood at 210.7 mg/dL.

Regarding `N[C@H]1[C@H](O[C@H]2[C@H](O)[C@@H](N)[C@H](O[C@H]3[C@H](O)[C@@H](N)C(O)O[C@@H]3CO)O[C@@H]2CO)O[C@H](CO)[C@@H](O)[C@@H]1O` (stereo partly drawn) [trisaccharide], the “blood glucose at 30 minutes” value stood at 179.4 mg/dL.
